Reference: US10266537B2, “3-acetylenyl-pyrazole-pyrimidine derivative, and preparation method therefor and uses thereof” (Si Chuan University, priority 2015, dated 2019)
Where two headings read alike, the source gives them in different places.

Experiments:
[1] = molecular target: Yes (Homo sapiens (Human), UniProt P07947); experiment: Kinase inhibition assay (KinaseProfiler, 33P-ATP); assay type: biochemical; conditions: for remaining activity at 10 µM: Yes(h), compound at 10 μM, read-out: The percentage of the remaining active protein; for IC50: Yes, ATP at Km
[2] = molecular target: Fyn (Homo sapiens (Human), UniProt P06241); experiment: Kinase inhibition assay (KinaseProfiler, 33P-ATP); assay type: biochemical; conditions: for remaining activity at 10 µM: Fyn(h), compound at 10 μM, read-out: The percentage of the remaining active protein; for IC50: Fyn, ATP at Km
[3] = molecular target: KDR (Homo sapiens (Human), UniProt P35968); experiment: Kinase inhibition assay (KinaseProfiler, 33P-ATP); assay type: biochemical; conditions: for remaining activity at 10 µM: KDR(h), compound at 10 μM, read-out: The percentage of the remaining active protein; for IC50: KDR, ATP at Km
[4] = molecular target: FGFR1 (Homo sapiens (Human), UniProt P11362); experiment: Kinase inhibition assay (KinaseProfiler, 33P-ATP); assay type: biochemical
[5] = molecular target: EphB4 (Homo sapiens (Human), UniProt P54760); experiment: Kinase inhibition assay (KinaseProfiler, 33P-ATP); assay type: biochemical; conditions: EphB4; ATP at Km
[6] = molecular target: ErbB2 (Homo sapiens (Human), UniProt P04626); experiment: Kinase inhibition assay (KinaseProfiler, 33P-ATP); assay type: biochemical; conditions: for remaining activity at 10 µM: ErbB2(h), compound at 10 μM, read-out: The percentage of the remaining active protein
[7] = molecular target: DDR1 (Homo sapiens (Human), UniProt Q08345); experiment: Kinase inhibition assay (KinaseProfiler, 33P-ATP); assay type: biochemical; conditions: DDR1; ATP at Km
[8] = molecular target: TrkA (Homo sapiens (Human), UniProt P04629); experiment: Kinase inhibition assay (KinaseProfiler, 33P-ATP); assay type: biochemical; conditions: TrkA(h); compound at 10 μM; read-out: The percentage of the remaining active protein
[9] = molecular target: IKKα (Homo sapiens (Human), UniProt O15111); experiment: Kinase inhibition assay (KinaseProfiler, 33P-ATP); assay type: biochemical; conditions: for remaining activity at 10 µM: IKKα(h), compound at 10 μM, read-out: The percentage of the remaining active protein
[10] = molecular target: Lyn (Homo sapiens (Human), UniProt P07948); experiment: Kinase inhibition assay (KinaseProfiler, 33P-ATP); assay type: biochemical; conditions: Lyn(h); compound at 10 μM; read-out: The percentage of the remaining active protein
[11] = molecular target: ALK(h) (Homo sapiens (Human), UniProt Q9UM73); experiment: Kinase inhibition assay (KinaseProfiler, 33P-ATP); assay type: biochemical; conditions: compound at 10 μM, read-out: The percentage of the remaining active protein
[12] = molecular target: CDK7 (Homo sapiens (Human), UniProt P50613); experiment: Kinase inhibition assay (KinaseProfiler, 33P-ATP); assay type: biochemical; conditions: CDK7; compound at 10 μM; read-out: The percentage of the remaining active protein
[13] = molecular target: EphA8(h) (Homo sapiens (Human), UniProt P29322); experiment: Kinase inhibition assay (KinaseProfiler, 33P-ATP); assay type: biochemical; conditions: compound at 10 μM, read-out: The percentage of the remaining active protein
[14] = molecular target: Fer(h) (Homo sapiens (Human), UniProt P16591); experiment: Kinase inhibition assay (KinaseProfiler, 33P-ATP); assay type: biochemical; conditions: compound at 10 μM, read-out: The percentage of the remaining active protein
[15] = molecular target: GSK3β(h) (Homo sapiens (Human), UniProt P49841); experiment: Kinase inhibition assay (KinaseProfiler, 33P-ATP); assay type: biochemical; conditions: compound at 10 μM, read-out: The percentage of the remaining active protein
[16] = molecular target: PKA(h) (Homo sapiens (Human), UniProt P17612); experiment: Kinase inhibition assay (KinaseProfiler, 33P-ATP); assay type: biochemical; conditions: compound at 10 μM, read-out: The percentage of the remaining active protein
[17] = molecular target: PKBα(h) (Homo sapiens (Human), UniProt P31749); experiment: Kinase inhibition assay (KinaseProfiler, 33P-ATP); assay type: biochemical; conditions: compound at 10 μM, read-out: The percentage of the remaining active protein
[18] = molecular target: PKBβ(h) (Homo sapiens (Human), UniProt P31751); experiment: Kinase inhibition assay (KinaseProfiler, 33P-ATP); assay type: biochemical; conditions: compound at 10 μM, read-out: The percentage of the remaining active protein
[19] = molecular target: PKCα(h) (Homo sapiens (Human), UniProt P17252); experiment: Kinase inhibition assay (KinaseProfiler, 33P-ATP); assay type: biochemical; conditions: compound at 10 μM, read-out: The percentage of the remaining active protein
[20] = molecular target: TBK1(h) (Homo sapiens (Human), UniProt Q9UHD2); experiment: Kinase inhibition assay (KinaseProfiler, 33P-ATP); assay type: biochemical; conditions: compound at 10 μM, read-out: The percentage of the remaining active protein
[21] = molecular target: Tec(h) activated (Homo sapiens (Human), UniProt P42680); experiment: Kinase inhibition assay (KinaseProfiler, 33P-ATP); assay type: biochemical; conditions: compound at 10 μM, read-out: The percentage of the remaining active protein
[22] = molecular target: PI3 Kinase a(h) (Homo sapiens (Human), UniProt P42336); experiment: Kinase inhibition assay (KinaseProfiler, 33P-ATP); assay type: biochemical; conditions: PI3 Kinase a(h); compound at 10 μM; read-out: The percentage of the remaining active protein
[23] = system: Miapaca-2; experiment: Cell proliferation inhibition assay (MTT); assay type: cell-based; conditions: Homo sapiens, read-out: Proliferation inhibitory activity IC50
Description: (§1) The cells were seeded in 96-well plates with 200 μL of cell suspension per well and incubated overnight in a cell culture medium with a cell concentration of 1 2×10^4 cells/mL. The next day, the supernatant was discarded (the suspension cell was centrifuged before it) and the cells were treated with gradient concentrations of the test compound, respectively. […] After 72 hours, add 20 μL of MTT reagent at a concentration of 5 mg/mL per well. After incubation for 2-4 h, the supernatant was discarded and 150 μL of DMSO was added to each well. […] Relative cell proliferation inhibition rate=([MUT]-[MUT])×100%/[MUT]. The experiment was repeated at least 3 times. Experimental data were expressed as mean, data statistics using t test, P<0.05 for the difference was statistically significant.

[24] = system: MDA-MB-231; experiment: Cell proliferation inhibition assay (MTT); assay type: cell-based, human
Description: The remaining cell lines were cultured in DMEM complete medium containing 10% fetal bovine serum (MV4-11 cells 20%), 100 U/ml penicillin, 100 μg/mL streptomycin at 5% CO2, and 37° C.
The cells were seeded in 96-well plates with 200 μL of cell suspension per well and incubated overnight in a cell culture medium with a cell concentration of 1˜2×10^4 cells/mL. The next day, the supernatant was discarded (the suspension cell was centrifuged before it) and the cells were treated with gradient concentrations of the test compound, respectively. At the same time, the drug-free negative control group and the equal volume of solvent control group, DMSO concentration of 0.1%, each dose group set up three wells, 37° C., 5% CO2 conditions. After 72 hours, add 20 μL of MTT reagent at a concentration of 5 mg/mL per well. After incubation for 2-4 h, the supernatant was discarded and 150 μL of DMSO was added to each well. […] Determine the absorbance (A) value (λ=570 nm, A value is proportional to the number of living cells), whichever is the average. […] The experiment was repeated at least 3 times. Experimental data were expressed as mean, data statistics using t test, P<0.05 for the difference was statistically significant. The inhibitory effects of the following compounds on cell proliferation were expressed as IC50 or inhibition rates.

[25] = system: MDA-MB-435; experiment: Cell proliferation inhibition assay (MTT); assay type: cell-based, human
[26] = system: HT29; experiment: Cell proliferation inhibition assay (MTT); assay type: cell-based; conditions: Homo sapiens, read-out: Proliferation inhibitory activity IC50
Description: as §1

[27] = system: breast cancer cell line MDA-MB-231; assay type: in vivo
Description: When the tumors grew to volumes of 200 mm^3, all the mice were randomized into groups (6 mice for each group) and dosed with indicated compounds.
Observation indexes: mouse body weight and the tumor size were measured once every three days, the tumor volume is calculated (length×width^2×0.5).

[28] = molecular target: c-Src(1-530) (Homo sapiens (Human), UniProt P12931); experiment: Kinase inhibition assay (KinaseProfiler, 33P-ATP); conditions: for IC50: c-Src(1-530), ATP at Km
[29] = molecular target: B-Raf (Homo sapiens (Human), UniProt P15056); experiment: Kinase inhibition assay (KinaseProfiler, 33P-ATP); conditions: for IC50: B-Raf, ATP at Km; for remaining activity at 10 µM: read-out: The percentage of the remaining active protein
[30] = molecular target: Bmx (Homo sapiens (Human), UniProt P51813); experiment: Kinase inhibition assay (KinaseProfiler, 33P-ATP); conditions: for remaining activity at 10 µM: read-out: The percentage of the remaining active protein
Sequence of Bmx (P51813 whole entry): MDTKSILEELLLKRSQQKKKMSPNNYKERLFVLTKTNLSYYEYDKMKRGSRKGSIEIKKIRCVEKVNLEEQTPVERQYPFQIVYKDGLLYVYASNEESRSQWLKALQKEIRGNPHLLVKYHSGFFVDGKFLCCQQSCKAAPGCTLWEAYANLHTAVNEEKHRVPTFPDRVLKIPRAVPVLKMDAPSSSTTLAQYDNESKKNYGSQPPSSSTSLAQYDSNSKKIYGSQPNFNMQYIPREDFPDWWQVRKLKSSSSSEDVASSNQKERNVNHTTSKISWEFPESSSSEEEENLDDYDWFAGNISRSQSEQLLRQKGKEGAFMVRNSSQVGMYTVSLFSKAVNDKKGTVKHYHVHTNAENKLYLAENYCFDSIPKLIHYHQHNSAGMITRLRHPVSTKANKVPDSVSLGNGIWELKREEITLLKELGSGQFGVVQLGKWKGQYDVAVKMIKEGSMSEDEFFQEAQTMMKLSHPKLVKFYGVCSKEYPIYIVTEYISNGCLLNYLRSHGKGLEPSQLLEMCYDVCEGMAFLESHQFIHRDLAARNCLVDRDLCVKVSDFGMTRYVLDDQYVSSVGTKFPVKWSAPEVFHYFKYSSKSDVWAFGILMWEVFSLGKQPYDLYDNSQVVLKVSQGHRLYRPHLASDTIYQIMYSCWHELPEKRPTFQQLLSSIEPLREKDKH

Sequence of B-Raf (P15056 whole entry): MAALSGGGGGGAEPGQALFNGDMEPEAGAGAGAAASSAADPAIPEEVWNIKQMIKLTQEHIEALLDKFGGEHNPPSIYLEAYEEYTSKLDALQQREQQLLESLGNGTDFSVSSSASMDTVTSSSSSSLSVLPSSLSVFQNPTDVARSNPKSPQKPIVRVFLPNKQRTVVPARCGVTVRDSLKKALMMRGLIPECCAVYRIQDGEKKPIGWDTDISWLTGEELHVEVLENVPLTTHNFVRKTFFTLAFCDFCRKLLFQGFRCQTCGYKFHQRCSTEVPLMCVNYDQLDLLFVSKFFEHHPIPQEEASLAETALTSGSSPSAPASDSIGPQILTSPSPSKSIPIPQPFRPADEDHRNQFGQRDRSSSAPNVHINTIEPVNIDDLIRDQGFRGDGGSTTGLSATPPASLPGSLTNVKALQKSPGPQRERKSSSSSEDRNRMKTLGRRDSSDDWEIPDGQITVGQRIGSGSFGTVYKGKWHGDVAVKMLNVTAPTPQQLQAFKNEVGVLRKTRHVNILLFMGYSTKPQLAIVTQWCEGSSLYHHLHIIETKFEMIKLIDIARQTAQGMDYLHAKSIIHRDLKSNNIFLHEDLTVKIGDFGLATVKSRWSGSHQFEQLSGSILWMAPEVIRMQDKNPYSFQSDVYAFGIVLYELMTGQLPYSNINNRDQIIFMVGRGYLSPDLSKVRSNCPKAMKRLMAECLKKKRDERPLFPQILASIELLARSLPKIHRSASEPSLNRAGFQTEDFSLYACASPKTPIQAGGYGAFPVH
Sequence of Fyn (P06241 whole entry): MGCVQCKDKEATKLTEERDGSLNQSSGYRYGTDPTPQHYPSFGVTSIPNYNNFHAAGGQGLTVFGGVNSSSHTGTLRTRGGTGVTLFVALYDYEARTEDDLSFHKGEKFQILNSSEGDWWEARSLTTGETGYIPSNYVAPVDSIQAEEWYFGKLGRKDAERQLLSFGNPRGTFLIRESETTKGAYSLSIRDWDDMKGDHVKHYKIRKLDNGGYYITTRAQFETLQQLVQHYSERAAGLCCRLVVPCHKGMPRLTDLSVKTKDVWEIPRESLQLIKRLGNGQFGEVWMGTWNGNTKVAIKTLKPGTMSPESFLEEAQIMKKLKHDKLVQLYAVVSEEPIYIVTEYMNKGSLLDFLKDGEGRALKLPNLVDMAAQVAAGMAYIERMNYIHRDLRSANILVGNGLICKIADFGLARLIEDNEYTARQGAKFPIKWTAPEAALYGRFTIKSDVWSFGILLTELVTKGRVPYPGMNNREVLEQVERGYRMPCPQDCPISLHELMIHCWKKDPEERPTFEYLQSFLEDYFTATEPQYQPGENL
Sequence of Yes (P07947 whole entry): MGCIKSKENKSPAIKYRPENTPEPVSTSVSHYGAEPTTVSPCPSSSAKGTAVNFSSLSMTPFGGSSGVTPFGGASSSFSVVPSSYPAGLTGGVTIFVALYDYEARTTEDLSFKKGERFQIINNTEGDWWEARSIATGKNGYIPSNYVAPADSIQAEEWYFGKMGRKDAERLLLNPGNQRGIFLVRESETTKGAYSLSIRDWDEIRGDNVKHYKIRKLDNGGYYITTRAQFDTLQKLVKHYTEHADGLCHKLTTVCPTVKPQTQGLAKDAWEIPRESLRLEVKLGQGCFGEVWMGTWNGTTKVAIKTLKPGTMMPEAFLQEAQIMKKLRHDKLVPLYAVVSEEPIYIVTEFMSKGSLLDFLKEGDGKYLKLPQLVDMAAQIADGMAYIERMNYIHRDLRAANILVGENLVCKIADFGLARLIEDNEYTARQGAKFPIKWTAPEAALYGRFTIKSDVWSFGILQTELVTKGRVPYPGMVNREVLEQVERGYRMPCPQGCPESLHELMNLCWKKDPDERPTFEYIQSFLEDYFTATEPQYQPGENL
Sequence of ErbB2 (P04626 23-1255): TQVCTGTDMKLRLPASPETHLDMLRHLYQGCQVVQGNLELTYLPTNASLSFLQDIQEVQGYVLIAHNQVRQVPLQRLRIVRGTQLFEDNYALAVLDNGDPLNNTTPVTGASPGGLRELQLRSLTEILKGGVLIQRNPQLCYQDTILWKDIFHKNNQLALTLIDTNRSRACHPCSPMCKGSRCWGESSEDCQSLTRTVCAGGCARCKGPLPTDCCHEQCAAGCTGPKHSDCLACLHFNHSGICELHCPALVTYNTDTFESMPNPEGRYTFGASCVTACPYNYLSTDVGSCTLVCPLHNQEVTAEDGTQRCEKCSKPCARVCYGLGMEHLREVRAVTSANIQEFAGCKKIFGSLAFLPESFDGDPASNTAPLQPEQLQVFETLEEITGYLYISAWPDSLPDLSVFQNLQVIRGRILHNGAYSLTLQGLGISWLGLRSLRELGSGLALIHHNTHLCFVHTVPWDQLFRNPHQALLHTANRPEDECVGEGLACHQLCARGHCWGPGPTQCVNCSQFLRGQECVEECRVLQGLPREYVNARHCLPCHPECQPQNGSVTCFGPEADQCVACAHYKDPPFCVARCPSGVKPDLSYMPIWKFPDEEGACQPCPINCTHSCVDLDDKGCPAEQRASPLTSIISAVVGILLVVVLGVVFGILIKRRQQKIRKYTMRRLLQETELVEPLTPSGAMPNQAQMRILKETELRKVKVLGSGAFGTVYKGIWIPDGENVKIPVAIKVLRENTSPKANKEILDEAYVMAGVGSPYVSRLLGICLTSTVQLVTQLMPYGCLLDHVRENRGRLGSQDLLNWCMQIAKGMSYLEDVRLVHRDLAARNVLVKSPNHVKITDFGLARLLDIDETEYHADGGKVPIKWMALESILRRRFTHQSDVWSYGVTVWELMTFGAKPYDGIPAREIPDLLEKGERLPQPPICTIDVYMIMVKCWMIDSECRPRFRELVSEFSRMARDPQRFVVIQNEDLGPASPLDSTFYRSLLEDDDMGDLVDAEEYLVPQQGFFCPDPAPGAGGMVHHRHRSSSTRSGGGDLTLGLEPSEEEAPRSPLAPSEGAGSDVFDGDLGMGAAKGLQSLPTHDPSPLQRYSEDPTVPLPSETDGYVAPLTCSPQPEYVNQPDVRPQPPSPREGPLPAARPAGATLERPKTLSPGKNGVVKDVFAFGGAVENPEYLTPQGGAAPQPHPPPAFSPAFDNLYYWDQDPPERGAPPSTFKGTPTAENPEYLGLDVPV
Sequence of c-Src(1-530) (P12931 whole entry, looked up): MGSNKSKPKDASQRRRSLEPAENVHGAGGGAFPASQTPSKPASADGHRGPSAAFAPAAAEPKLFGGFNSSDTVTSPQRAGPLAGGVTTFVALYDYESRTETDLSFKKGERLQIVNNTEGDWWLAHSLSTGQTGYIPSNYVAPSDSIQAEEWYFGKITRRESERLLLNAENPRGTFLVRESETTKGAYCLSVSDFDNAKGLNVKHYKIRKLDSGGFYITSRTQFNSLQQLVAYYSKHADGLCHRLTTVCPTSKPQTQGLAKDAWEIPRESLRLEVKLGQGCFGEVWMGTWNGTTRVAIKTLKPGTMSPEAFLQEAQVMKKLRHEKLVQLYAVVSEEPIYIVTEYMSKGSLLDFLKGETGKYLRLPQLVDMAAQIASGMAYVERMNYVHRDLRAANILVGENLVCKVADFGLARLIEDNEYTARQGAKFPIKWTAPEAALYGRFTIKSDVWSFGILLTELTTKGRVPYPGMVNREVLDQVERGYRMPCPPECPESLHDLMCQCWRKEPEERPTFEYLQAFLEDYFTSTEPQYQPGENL
Sequence of IKKα (O15111 whole entry): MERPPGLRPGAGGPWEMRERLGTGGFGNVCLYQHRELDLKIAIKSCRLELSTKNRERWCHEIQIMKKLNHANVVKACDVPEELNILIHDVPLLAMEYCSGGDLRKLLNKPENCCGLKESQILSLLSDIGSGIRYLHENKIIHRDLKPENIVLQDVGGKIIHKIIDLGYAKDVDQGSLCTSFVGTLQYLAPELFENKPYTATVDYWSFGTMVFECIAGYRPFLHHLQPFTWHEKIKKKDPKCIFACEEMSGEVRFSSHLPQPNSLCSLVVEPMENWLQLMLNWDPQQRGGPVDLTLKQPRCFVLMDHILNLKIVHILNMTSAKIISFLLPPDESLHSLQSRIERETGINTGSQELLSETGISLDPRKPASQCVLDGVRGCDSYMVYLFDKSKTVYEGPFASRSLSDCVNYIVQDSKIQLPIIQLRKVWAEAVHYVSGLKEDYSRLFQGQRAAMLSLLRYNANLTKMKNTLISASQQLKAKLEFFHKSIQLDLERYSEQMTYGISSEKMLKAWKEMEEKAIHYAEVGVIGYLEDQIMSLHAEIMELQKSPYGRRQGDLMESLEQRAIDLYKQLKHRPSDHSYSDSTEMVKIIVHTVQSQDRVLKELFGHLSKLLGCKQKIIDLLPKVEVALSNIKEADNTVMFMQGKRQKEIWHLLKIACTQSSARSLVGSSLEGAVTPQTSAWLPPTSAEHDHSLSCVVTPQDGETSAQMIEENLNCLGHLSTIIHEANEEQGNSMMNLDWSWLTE

CCn1nc(C#Cc2cc(C(=O)Nc3ccc(CN4CCN(C)CC4)c(C(F)(F)F)c3)ccc2C)c2c(N)ncnc21 [Compound 3]
remaining activity at 10 µM [1]: 0%
IC50 [1]: < 1 nM
remaining activity at 10 µM [2]: 0%
IC50 [2]: 5 nM
remaining activity at 10 µM [3]: 2%
IC50 [3]: 17 nM
IC50 ([4]; FGFR1, ATP at Km): 3 nM
IC50 [5]: 23 nM
remaining activity at 10 µM [6]: 3%
IC50 [7]: 9 nM
remaining activity at 10 µM [8]: -2%
remaining activity at 10 µM [9]: 2%
IC50 ([9]; IKKα, ATP at Km): 353 nM
remaining activity at 10 µM [10]: 0%
remaining activity at 10 µM [11]: 27%
remaining activity at 10 µM [12]: 70%
remaining activity at 10 µM [13]: -5%
remaining activity at 10 µM [14]: 23%
remaining activity at 10 µM [15]: 130%
remaining activity at 10 µM [16]: 17%
remaining activity at 10 µM [17]: 73%
remaining activity at 10 µM [18]: 52%
remaining activity at 10 µM [19]: 101%
remaining activity at 10 µM [20]: 75%
remaining activity at 10 µM [21]: 4%
remaining activity at 10 µM [22]: 93%
IC50 ([23]; MIA PaCa-2, 72 h): 12.8 nM
IC50 ([24]; Homo sapiens, MDA-MB-231, 72 h, read-out: Proliferation inhibitory activity IC50): 11.3 nM
IC50 ([24]; read-out: Proliferative inhibitory activity MDA-MB-231 (IC50 class)): < 100 nM
IC50 ([25]; Homo sapiens, MDA-MB-435, 72 h, read-out: Proliferation inhibitory activity IC50): 8.65 nM
IC50 ([25]; read-out: Proliferative inhibitory activity MDA-MB-435 (IC50 class)): < 100 nM
IC50 ([26]; HT-29, 72 h): 166 nM
inhibitory effect compared to positive control ([27]; mouse, in vivo): better than the positive control (paclitaxel)
tumor growth inhibition ([27]; mouse, in vivo): significantly inhibited
IC50 [28]: < 1 nM
IC50 [29]: 92 nM
remaining activity at 10 µM [29]: 5%
IC50 [30]: 6 nM
remaining activity at 10 µM [30]: 0%

Cc1ccc(NC(=O)c2cccc(C(F)(F)F)c2)cc1C#Cc1nn(C2CCN(C)CC2)c2ncnc(N)c12 [Compound 31]
remaining activity at 10 µM [1]: 0%
IC50 [1]: < 1 nM
remaining activity at 10 µM [2]: -1%
IC50 [2]: 3 nM
remaining activity at 10 µM [3]: 3%
IC50 [3]: 12 nM
remaining activity at 10 µM ([4]; FGFR1(h), compound at 10 μM, read-out: The percentage of the remaining active protein): 0%
IC50 [5]: 11 nM
remaining activity at 10 µM [6]: 2%
IC50 ([6]; ErbB2, ATP at Km): 251 nM
IC50 [7]: 4 nM
remaining activity at 10 µM [8]: 14%
remaining activity at 10 µM [9]: 14%
remaining activity at 10 µM [10]: 0%
remaining activity at 10 µM [11]: 33%
remaining activity at 10 µM [12]: 70%
remaining activity at 10 µM [13]: -4%
remaining activity at 10 µM [14]: 92%
remaining activity at 10 µM [15]: 99%
remaining activity at 10 µM [16]: 58%
remaining activity at 10 µM [17]: 56%
remaining activity at 10 µM [18]: 14%
remaining activity at 10 µM [19]: 92%
remaining activity at 10 µM [20]: 83%
remaining activity at 10 µM [21]: 13%
remaining activity at 10 µM [22]: 98%
IC50 ([23]; MIA PaCa-2, Miapaca-2, MTT, 72 hours): 40.4 nM
IC50 ([24]; Homo sapiens, MDA-MB-231, MTT, 72 hours, read-out: Proliferation inhibitory activity IC50): 15.3 nM
IC50 ([24]; Homo sapiens, MDA-MB-231, MTT, 72 hours, read-out: Proliferative inhibitory activity MDA-MB-231 (IC50 class)): < 100 nM
IC50 ([25]; Homo sapiens, MDA-MB-435, MTT, 72 hours, read-out: Proliferation inhibitory activity IC50): 14.7 nM
IC50 ([25]; Homo sapiens, MDA-MB-435, MTT, 72 hours, read-out: Proliferative inhibitory activity MDA-MB-435 (IC50 class)): < 100 nM
IC50 ([26]; HT-29, HT29, MTT, 72 hours): 350 nM
tumor growth inhibition ([27]; MDA-MB-231 subcutaneous tumor, nude mice, 20 mg/kg per day, oral): significantly inhibit tumor growth
inhibitory effect compared to positive control ([27]; MDA-MB-231 subcutaneous tumor, nude mice, vs paclitaxel 10 mg/kg per week tail vein, dasatinib 40 mg/kg daily oral): superior inhibitory effect compared to positive control (paclitaxel and dasatinib)
toxicity / side effects (weight loss, rash, diarrhea) during administration ([27]; nude mice, test dose range, daily oral): low toxicity
IC50 [28]: 2 nM
remaining activity at 10 µM ([28]; read-out: The percentage of the remaining active protein): 0%
IC50 [29]: 22 nM
remaining activity at 10 µM [29]: 1%
IC50 [30]: 18 nM
remaining activity at 10 µM [30]: 0%
